Assays:
brain grey matter = test: Brain grey matter NIR fluorescence imaging (FLARE); assay type: in vivo; settings: 25 g male mouse, 25 nmol intravenously, 4 hours; Channel 1 (700 nm) or Channel 2 (800 nm)
Description: (§1) Absorbance and fluorescence emission spectra were measured using fiber optic HR2000 absorbance (200-1100 nm) and USB2000FL fluorescence (350-1000 nm) spectrometers (Ocean Optics, Dunedin, Fla.). Excitation was provided by a 532 nm green laser pointer (Opcom Inc., Xiamen, China) set to 5 mW, a 655 nm red laser pointer (Opcom Inc., Xiamen, China) set to 5 mW, or a 770 nm NIR laser diode light source (Electro Optical Components, Santa Rosa, Calif.) set to 10 mW and coupled through a 300 μm core diameter, NA 0.22 fiber (Fiberguide Industries, Stirling, N.J.). In silico calculations of the partition coefficient (log D at pH 7.4) and surface molecular charge and hydrophobicity were calculated using MarvinSketch 5.2.1 by taking major microspecies at pH 7.4 (ChemAxon, Budapest, Hungary). NIR Fluorescence Imaging System The dual-NIR channel FLARE′ imaging system has been described in detail previously (26-28). […] Color and two independent NIR fluorescence emission images (≈700 nm for Channel 1 and ≈800 nm for Channel 2) were acquired simultaneously with custom software at rates up to 15 Hz over a 15 cm diameter field of view. NIR fluorescence from Channel 1 was pseudo-colored in red and NIR fluorescence from Channel 2 was pseudo-colored in lime green prior to merger with the color video image. […] Animal Models and Intraoperative NIR Fluorescence Imaging […]

pancreas = test: Pancreas NIR fluorescence imaging (FLARE); assay type: in vivo; settings: 35 kg female pig, 5 μmol intravenously, 4 hours; Channel 1 (700 nm) or Channel 2 (800 nm)
Description: as §1

pituitary gland = test: Pituitary gland NIR fluorescence imaging (FLARE); assay type: in vivo; settings: 25 g male mouse, 25 nmol intravenously, 4 hours; Channel 1 (700 nm) or Channel 2 (800 nm)
Description: as §1

white adipose tissue = test: White adipose tissue NIR fluorescence imaging (FLARE); assay type: in vivo; settings: 25 g male mouse, 25 nmol intravenously, 4 hours; Channel 1 (700 nm) or Channel 2 (800 nm)
Description: as §1

choroid plexus = test: Choroid plexus NIR fluorescence imaging (FLARE); assay type: in vivo; settings: 25 g male mouse, 25 nmol intravenously, 4 hours; Channel 1 (700 nm) or Channel 2 (800 nm)
Description: as §1

spleen = test: Spleen NIR fluorescence imaging (FLARE); assay type: in vivo; settings: 25 g male mouse, 25 nmol intravenously, 4 hours; Channel 1 (700 nm) or Channel 2 (800 nm)
Description: as §1

ovaries = test: Ovary NIR fluorescence imaging (FLARE); assay type: in vivo; settings: 25 g female mouse, 25 nmol intravenously, 4 hours; Channel 1 (700 nm) or Channel 2 (800 nm)
Description: as §1

adrenal = test: Adrenal NIR fluorescence imaging (FLARE); assay type: in vivo; settings: 35 kg female pig, 5 μmol intravenously, 4 hours; Channel 1 (700 nm) or Channel 2 (800 nm)
Description: as §1

stem cells = test: Stem cell tracking: NIR fluorescence microscopy of labelled cells; assay type: cell-based; settings: 2 μM, 30 min incubation at 37° C., fixed in 2% paraformaldehyde, 10 μm sections; fluorescence microscope Channel 1 (700 nm) or Channel 2 (800 nm)
salivary glands = test: Salivary gland NIR fluorescence imaging (FLARE); assay type: in vivo; settings: 25 g male mouse, 25 nmol intravenously, 4 hours; Channel 1 (700 nm) or Channel 2 (800 nm)
Description: as §1

ureters = test: Ureter NIR fluorescence imaging (FLARE); assay type: in vivo; settings: 35 kg female pig, 5 μmol intravenously, waiting period 30 min, imaged over next 4 hours; Channel 1 (700 nm) or Channel 2 (800 nm)
Description: as §1

pan lymph nodes = test: Pan lymph node NIR fluorescence imaging (FLARE); assay type: in vivo; settings: 250 g male rat, 20 nmol intravenously, 4 hours; Channel 1 (700 nm) or Channel 2 (800 nm)
Description: as §1

bile duct = test: Bile duct NIR fluorescence imaging (FLARE); assay type: in vivo; settings: 35 kg female pig, 5 μmol intravenously, 4 hours; Channel 1 (700 nm) or Channel 2 (800 nm)
Description: as §1

thoracic duct = test: Thoracic duct NIR fluorescence imaging (FLARE); assay type: in vivo; settings: 35 kg female pig, 5 μmol subcutaneously into the lower leg, 30 minutes; Channel 1 (700 nm) or Channel 2 (800 nm)
Description: as §1

gallbladder = test: Gallbladder NIR fluorescence imaging (FLARE); assay type: in vivo; settings: 25 g male mouse, 25 nmol intravenously, 4 hours; Channel 1 (700 nm) or Channel 2 (800 nm)
Description: as §1

thyroid = test: Thyroid NIR fluorescence imaging (FLARE); assay type: in vivo; settings: 35 kg female pig, 5 μmol intravenously, 4 hours; Channel 1 (700 nm) or Channel 2 (800 nm)
Description: as §1

parathyroid = test: Parathyroid NIR fluorescence imaging (FLARE); assay type: in vivo; settings: 35 kg female pig, 5 μmol intravenously, 4 hours; Channel 1 (700 nm) or Channel 2 (800 nm)
Description: as §1

brown fat = test: Brown adipose tissue NIR fluorescence imaging (FLARE); assay type: in vivo; settings: 25 g male mouse, 25 nmol intravenously, 4 hours; Channel 1 (700 nm) or Channel 2 (800 nm)
Description: as §1

seminal vesicle = test: Seminal vesicle NIR fluorescence imaging (FLARE); assay type: in vivo; settings: 25 g male mouse, 25 nmol intravenously, 4 hours; Channel 1 (700 nm) or Channel 2 (800 nm)
Description: as §1

CSF = CSF NIR fluorescence imaging (FLARE); assay type: in vivo; settings: 35 kg female pig, 5 μmol intravenously, 4 hours; Channel 1 (700 nm) or Channel 2 (800 nm)
Description: as §1

SMILES: CCCC[N+]1=C(/C=C/C=C/C=C/C=C2/N(C)c3ccccc3C2(C)C)C(C)(C)c2cc(OC)ccc21 [ZK189]
- NIR fluorescence contrast of the brain grey matter (brain grey matter): highlighted with high contrast

SMILES: COc1ccc2c(c1)C(C)(C)C(/C=C/C=C/C=C/C=C1/N(C)c3ccc(OC)cc3C1(C)C)=[N+]2C [AL22]
- NIR fluorescence contrast of the pancreas (pancreas): highlighted with high contrast
- NIR fluorescence contrast of the pituitary gland (pituitary gland): highlighted with high contrast

SMILES: CCN(CC)c1ccc(/C=C/C2=CC(/C=C/c3ccc(N(CC)CC)cc3)=[O+][B-](F)(F)O2)cc1 [PS31]
- NIR fluorescence contrast of the white adipose tissue (white adipose tissue): highlighted with high contrast

SMILES: CN1/C(=C/C=C/C=C/c2sc3ccccc3[n+]2C)Sc2ccccc21 [SP28]
- NIR fluorescence contrast of the choroid plexus (choroid plexus): highlighted with high contrast

SMILES: CC1(C)C(/C=C/C=C/C=C/C=C2/N(CCCc3ccccc3)c3ccccc3C2(C)C)=[N+](CCCc2ccccc2)c2ccccc21 [AL29]
- NIR fluorescence contrast of the spleen (spleen): highlighted with high contrast

SMILES: CCCCN1/C(=C/C=C/C=C/C=C/C2=[N+](CCCC)c3ccc(Cl)cc3C2(C)C)C(C)(C)c2cc(Cl)ccc21 [AH34]
- NIR fluorescence contrast of the white adipose tissue (white adipose tissue): highlighted with high contrast

SMILES: CCCCN1/C(=C/C=C/C=C/C=C/C2=[N+](CCCC)c3ccccc3C2(C)C)C(C)(C)c2ccccc21 [AL27]
- NIR fluorescence contrast of the ovaries (ovaries): highlighted with high contrast
- NIR fluorescence contrast of the adrenal (adrenal): highlighted with high contrast

SMILES: CCN1/C(=C/C=C(/C=C/C2=[N+](CC)c3ccccc3C2(C)C)Oc2ccc(CCN)cc2)C(C)(C)c2ccccc21 [PS127]
- NIR fluorescence contrast of the cytoplasm of cell (stem cells): highlighted with high contrast

SMILES: CN1\C(=C/C=C/C=C/C2=[N+](C)c3cc4c(cc3C2(C)C)OCO4)C(C)(C)c2cc3c(cc21)OCO3 [NRB1]
- NIR fluorescence contrast of the salivary glands (salivary glands): highlighted with high contrast

SMILES: CC1(C)C(/C=C/C(=C/C=C2/N(CCC[N+](C)(C)C)c3ccc(S(=O)(=O)O)cc3C2(C)C)Oc2ccc(CCC(=O)O)cc2)=[N+](CCC[N+](C)(C)C)c2ccc(S(=O)(=O)O)cc21 [LN15]
- NIR fluorescence contrast of the ureter (ureters): highlighted with high contrast

SMILES: CC1(C)C(/C=C/C(Br)=C/C=C2/N(CCC[N+](C)(C)C)c3ccc(Br)cc3C2(C)C)=[N+](CCC[N+](C)(C)C)c2ccc(Br)cc21 [A150]
- NIR fluorescence contrast of all lymph nodes (pan lymph nodes): highlighted with high contrast

SMILES: CN1/C(=C/C2=CC3=C/C(=C/c4sc5cc(O)ccc5[n+]4C)CCC3CC2)Sc2cc(O)ccc21 (stereo not drawn) [ZK198]
- NIR fluorescence contrast of the bile duct (bile duct): highlighted with high contrast
- NIR fluorescence contrast of the thoracic duct (thoracic duct): highlighted with high contrast
- NIR fluorescence contrast of the gallbladder (gallbladder): highlighted with high contrast

SMILES: CN1/C(=C/C=C/C=C/C=C/C2=[N+](C)c3ccc(F)cc3C2(C)C)C(C)(C)c2cc(F)ccc21 [QBN14]
- NIR fluorescence contrast of the thyroid (thyroid): highlighted with high contrast
- NIR fluorescence contrast of the parathyroid (parathyroid): highlighted with high contrast

SMILES: CCN(CC)c1ccc2nc3ccc(=[N+](CC)CC)cc-3oc2c1 [WuA96]
- NIR fluorescence contrast of the brain grey matter (brain grey matter): highlighted with high contrast

SMILES: CNCCCN1/C(=C/C=C/C=C/c2sc3ccccc3[n+]2CCCNC)Sc2ccccc21 [ZK211]
- NIR fluorescence contrast of the salivary glands (salivary glands): highlighted with high contrast

SMILES: CC1(C)C(/C=C/C(Br)=C/C=C2/N(CCCc3ccccc3)c3ccc4ccccc4c3C2(C)C)=[N+](CCCc2ccccc2)c2ccc3ccccc3c21 [E24]
- NIR fluorescence contrast of the spleen (spleen): highlighted with high contrast

SMILES: CCN1/C(=C/C=C/C=C/c2sc3cc(C)ccc3[n+]2CC)Sc2cc(C)ccc21 [SP60]
- NIR fluorescence contrast of the pituitary gland (pituitary gland): highlighted with high contrast

SMILES: CCCCN1/C(=C/C=C/C=C/c2sc3ccccc3[n+]2CCCC)Sc2ccccc21 [SP30]
- NIR fluorescence contrast of the brown fat (brown fat): highlighted with high contrast

SMILES: CC1(C)C(/C=C/C2=C(NCCc3ccc(N)cc3)C(=C/C=C3/N(CCC[N+](C)(C)C)c4ccc(S(=O)(=O)O)cc4C3(C)C)/CCC2)=[N+](CCC[N+](C)(C)C)c2ccc(S(=O)(=O)O)cc21 [LN65]
- NIR fluorescence contrast of the seminal vesicle (seminal vesicle): highlighted with high contrast

SMILES: CC1(C)C(/C=C/C2=C(c3ccc(CCC(=O)O)cc3)C(=C/C=C3/N(CCC[N+](C)(C)C)c4ccc(S(=O)(=O)O)cc4C3(C)C)/CCC2)=[N+](CCC[N+](C)(C)C)c2ccc(S(=O)(=O)O)cc21 [A71]
- NIR fluorescence contrast of the ureter (ureters): highlighted with high contrast

SMILES: CN1/C(=C/C=C/C=C/C=C/C2=[N+](C)c3ccc(Br)cc3C2(C)C)C(C)(C)c2cc(Br)ccc21 [QBN1]
- NIR fluorescence contrast of the brown fat (brown fat): highlighted with high contrast

SMILES: CCN1/C(=C/C=C2\CCCC(/C=C/C3=[N+](CC)c4ccccc4C3(C)C)=C2Oc2ccc(CCN)cc2)C(C)(C)c2ccccc21 [PS126]
- NIR fluorescence contrast of the cytoplasm of cell (stem cells): highlighted with high contrast

SMILES: CC1(C)C(/C=C/C(Br)=C/C=C2/N(CCC[N+](C)(C)C)c3ccc(S(=O)(=O)O)cc3C2(C)C)=[N+](CCC[N+](C)(C)C)c2ccc(S(=O)(=O)O)cc21 [A106]
- NIR fluorescence contrast of the bile duct (bile duct): highlighted with high contrast
- NIR fluorescence contrast of the thoracic duct (thoracic duct): highlighted with high contrast

SMILES: CN1/C(=C/C=C/C=C/C2=[N+](C)c3ccc(F)cc3C2(C)C)C(C)(C)c2cc(F)ccc21 [T14]
- NIR fluorescence contrast of the pancreas (pancreas): highlighted with high contrast
- NIR fluorescence contrast of the thyroid (thyroid): highlighted with high contrast
- NIR fluorescence contrast of the parathyroid (parathyroid): highlighted with high contrast

SMILES: CN1/C(=C/C=C/C=C/C=C/c2sc3ccccc3[n+]2C)Sc2ccccc21 [ZK208]
- NIR fluorescence contrast of the choroid plexus (choroid plexus): highlighted with high contrast

SMILES: CN(C)CCCN1/C(=C/C=C/C=C/c2sc3cc(O)ccc3[n+]2CCCN(C)C)Sc2cc(O)ccc21 [SP66]
- NIR fluorescence contrast of the CSF (CSF): highlighted with high contrast

SMILES: CC1(C)C(/C=C/C2=C(Sc3ccc(CC(=O)O)cc3)C(=C/C=C3/N(CCC[N+](C)(C)C)c4ccc(S(=O)(=O)O)cc4C3(C)C)/CCC2)=[N+](CCC[N+](C)(C)C)c2ccc(S(=O)(=O)O)cc21 [CNN2]
- NIR fluorescence contrast of the seminal vesicle (seminal vesicle): highlighted with high contrast

SMILES: CC1(C)C(/C=C/C=C/C=C2/N(CCCc3ccccc3)c3ccc4ccccc4c3C2(C)C)=[N+](CCCc2ccccc2)c2ccc3ccccc3c21 [E16]
- NIR fluorescence contrast of the adrenal (adrenal): highlighted with high contrast

Reference: patent US11077210B2, “Near-infrared fluorescent contrast bioimaging agents and methods of use thereof” (Beth Israel Deaconess Medical Center, priority 2013, dated 2021)
